Source: ChEMBL document CHEMBL4311992, “Discovery of 3-(((9H-purin-6-yl)amino)methyl)-4,6-dimethylpyridin-2(1H)-one derivatives as novel tubulin polymerization inhibitors for treatment of cancer” (Eur J Med Chem, 2019)
Calls of active or inactive are those of the source. The calls are words filed in the database; no cut-off is given here.

Legend:
[1] = target: Myotonin-protein kinase (Homo sapiens) (UniProt Q09013); test: Inhibition of recombinant human DMPK (1 to 549 residues) assessed as residual activity at 10 uM using KKSRGDYMTMQIG as substrate measured after 40 mins in presence of [gamma33P]ATP by scintillation counting method
[2] = target: LIM domain kinase 2 (Homo sapiens) (UniProt P53671); test: Inhibition of recombinant human LIMK2 assessed as residual activity at 10 uM by radiometric method
[3] = target: Ephrin type-A receptor 5 (Homo sapiens) (UniProt P54756); test: Inhibition of recombinant human EphA5 (655 to 956 residues) assessed as residual activity at 10 uM using poly(Glu, Tyr) 4:1 as substrate measured after 40 mins in presence of [gamma33P]ATP by scintillation counting method
HCT-116 [4] = test: Induction of apoptosis in human HCT116 cells assessed as increase in cleaved PARP expression up to 200 nM measured after 48 hrs by Western blot analysis; type: functional, cell-based
[5] = target: Ribosomal protein S6 kinase alpha-5 (Homo sapiens) (UniProt O75582); test: Inhibition of recombinant human MSK1 (2 to end residues) assessed as residual activity at 10 uM using GRPRTSSFAEGKK as substrate measured after 40 mins in presence of [gamma33P]ATP by scintillation counting method
HCT-116 [6] = test: Induction of apoptosis in human HCT116 cells assessed as late apoptotic cells at 50 nM measured after 48 hrs by Annexin V-FITC/propidium iodide staining-based flow cytometry (reference value: 3.87%); type: functional
[7] = target: Mitogen-activated protein kinase kinase kinase 9 (Homo sapiens) (UniProt P80192); test: Inhibition of recombinant human MLK1 (134 to 414 residues) assessed as residual activity at 10 uM using casein as substrate measured after 40 mins in presence of [gamma33P]ATP by scintillation counting method
[8] = Toxicity in nude BALB/c mouse assessed as change in uric acid level at 40 to 80 mg/kg, po once daily for 4 weeks measured post-last dose; type: organism-based; settings: in vivo, 672 h
[9] = target: Dual specificity mitogen-activated protein kinase kinase 2 (Homo sapiens) (UniProt P36507); test: Inhibition of recombinant full-length human MEK2 assessed as residual activity at 10 uM using MBP as substrate measured after 40 mins in presence of [gamma33P]ATP by scintillation counting method
[10] = test system: PI3-kinase p110-alpha/p85-alpha (Homo sapiens), P27986+P42336 [E542K]; test: Inhibition of recombinant full-length human PI3K p110alpha/p85alpha E542K mutant assessed as residual activity at 10 uM using phosphatidylinositol-4, 5-bisphosphate as substrate measured after 40 mins by fluorescence assay; type: protein-complex assay
[11] = target: Histone-lysine N-methyltransferase EZH2 (Homo sapiens) (UniProt Q15910); test: Inhibition of EZH2 (unknown origin) at 1 uM relative to control
[12] = target: Serine/threonine-protein kinase 32C (Homo sapiens) (UniProt Q86UX6); test: Inhibition of recombinant full-length human STK32C assessed as residual activity at 10 uM using casein as substrate measured after 120 mins in presence of [gamma33P]ATP by scintillation counting method
[13] = test system: Macrophage colony-stimulating factor 1 receptor (Homo sapiens), P07333 [Y969C]; test: Inhibition of recombinant human FMS Y969C mutant (538 to end residues) assessed as residual activity at 10 uM using EEEEYEEEEEEYYIIEEEEEEYEEEEEEYYEEEEEEKKKK as substrate measured after 40 mins in presence of [gamma33P]ATP by scintillation counting method
SW-620 = test: Cell cycle arrest in human SW620 cells assessed as up regulation of CDK1 expression up to 150 nM after 24 hrs by Western blot analysis; type: functional, cell-based
[14] = Cardiotoxicity in nude BALB/c mouse at 80 mg/kg, po administered once daily for 4 weeks measured post-last dose by hematoxylin and eosin staining-based assay; type: toxicity, organism-based; settings: in vivo, 672 h
[15] = target: Activin receptor type-2A (Homo sapiens) (UniProt P27037); test: Inhibition of recombinant human ACTR2 (162 to end residues) assessed as residual activity at 10 uM using casein as substrate measured after 120 mins in presence of [gamma33P]ATP by scintillation counting method
[16] = target: Serine/threonine-protein kinase 10 (Homo sapiens) (UniProt O94804); test: Inhibition of recombinant human LOK (1 to 348 residues) assessed as residual activity at 10 uM using RLGRDKYKTLRQIRQ as substrate measured after 40 mins in presence of [gamma33P]ATP by scintillation counting method
[17] = target: Serine/threonine-protein kinase D3 (Homo sapiens) (UniProt O94806); test: Inhibition of recombinant full-length human PKD3 assessed as residual activity at 10 uM using KKLRRTLSVA as substrate measured after 40 mins in presence of [gamma33P]ATP by scintillation counting method
[18] = target: Serine/threonine-protein kinase Nek1 (Homo sapiens) (UniProt Q96PY6); test: Inhibition of recombinant human NEK1 (1 to 505 residues) assessed as residual activity at 10 uM using RLGRDKYKTLRQIRQ as substrate measured after 40 mins in presence of [gamma33P]ATP by scintillation counting method
[19] = target: Casein kinase I (Homo sapiens) (UniProt Q9HCP0+P78368+P48730+P49674+P48729); test: Inhibition of CK1 (unknown origin) assessed as residual activity at 10 uM; type: protein assay
[20] = target: Ephrin type-A receptor 8 (Homo sapiens) (UniProt P29322); test: Inhibition of recombinant human EphA8 (615 to 911 residues) assessed as residual activity at 10 uM using KTFCGTPEYLAPEVRREPRILSEEEQEMFRDFDYIADWC as substrate measured after 40 mins in presence of [gamma33P]ATP by scintillation counting method
[21] = target: Tyrosine-protein kinase TXK (Homo sapiens) (UniProt P42681); test: Inhibition of human Txk (256 to end residues) using GEEPLYWSFPAKKK as substrate measured after 40 mins in presence of [gamma33P]ATP by scintillation counting method; design: scale not given: the % may be the effect or the level left
[22] = target: Activated CDC42 kinase 1 (Homo sapiens) (UniProt Q07912); test: Inhibition of recombinant human ACK1 (1 to 389 residues) assessed as residual activity at 10 uM using EFPIYDFLPAKKK as substrate measured after 40 mins in presence of [gamma33P]ATP by scintillation counting method
[23] = test system: Tyrosine-protein kinase ABL1 (Homo sapiens), P00519 [Y253F]; test: Inhibition of recombinant human ABL Y253F mutant (27 to end residues) assessed as residual activity at 10 uM using EAIYAAPFAKKK as substrate measured after 40 mins in presence of [gamma33P]ATP by scintillation counting method
[24] = target: Epidermal growth factor receptor (Homo sapiens) (UniProt P00533); test: Inhibition of recombinant human EGFR (696 to end residues) assessed as residual activity at 10 uM using poly(Glu, Tyr) 4:1 as substrate measured after 40 mins in presence of [gamma33P]ATP by scintillation counting method

Serine/threonine-protein kinase Nek1 (Homo sapiens), sequence (Q96PY6 whole entry, the tested form may be a part): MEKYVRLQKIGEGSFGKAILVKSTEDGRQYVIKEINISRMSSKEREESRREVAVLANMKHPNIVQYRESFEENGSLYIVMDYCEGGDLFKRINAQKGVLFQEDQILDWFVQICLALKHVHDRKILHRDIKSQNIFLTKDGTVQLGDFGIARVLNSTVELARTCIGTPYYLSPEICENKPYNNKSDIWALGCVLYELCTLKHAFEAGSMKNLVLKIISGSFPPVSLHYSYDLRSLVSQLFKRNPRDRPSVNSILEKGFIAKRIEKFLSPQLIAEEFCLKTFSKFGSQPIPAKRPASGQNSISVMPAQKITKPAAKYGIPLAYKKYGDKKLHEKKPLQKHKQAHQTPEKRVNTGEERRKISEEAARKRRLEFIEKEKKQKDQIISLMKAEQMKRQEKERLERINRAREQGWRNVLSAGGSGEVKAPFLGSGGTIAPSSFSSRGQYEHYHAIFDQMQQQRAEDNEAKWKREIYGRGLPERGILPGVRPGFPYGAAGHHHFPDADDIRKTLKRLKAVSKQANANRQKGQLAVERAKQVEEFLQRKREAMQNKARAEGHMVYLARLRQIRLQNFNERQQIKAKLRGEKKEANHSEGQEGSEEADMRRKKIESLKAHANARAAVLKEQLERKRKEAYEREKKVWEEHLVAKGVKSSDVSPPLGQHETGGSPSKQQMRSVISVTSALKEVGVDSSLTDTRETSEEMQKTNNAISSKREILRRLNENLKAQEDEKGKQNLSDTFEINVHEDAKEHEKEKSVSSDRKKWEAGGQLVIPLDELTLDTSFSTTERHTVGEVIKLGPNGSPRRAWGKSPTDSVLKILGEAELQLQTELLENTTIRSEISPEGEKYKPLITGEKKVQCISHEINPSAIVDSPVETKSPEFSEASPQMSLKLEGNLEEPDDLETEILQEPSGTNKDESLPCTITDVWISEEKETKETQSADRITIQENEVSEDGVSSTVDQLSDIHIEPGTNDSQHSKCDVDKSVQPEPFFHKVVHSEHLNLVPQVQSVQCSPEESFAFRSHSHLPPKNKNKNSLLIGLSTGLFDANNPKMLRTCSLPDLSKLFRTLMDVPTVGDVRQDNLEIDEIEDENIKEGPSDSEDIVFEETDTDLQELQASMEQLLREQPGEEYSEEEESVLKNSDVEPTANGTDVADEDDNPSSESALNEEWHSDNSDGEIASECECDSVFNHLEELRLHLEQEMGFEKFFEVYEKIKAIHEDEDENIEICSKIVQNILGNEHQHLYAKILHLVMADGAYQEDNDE
Activated CDC42 kinase 1 (Homo sapiens), sequence (Q07912 whole entry, looked up, the tested form may be a part): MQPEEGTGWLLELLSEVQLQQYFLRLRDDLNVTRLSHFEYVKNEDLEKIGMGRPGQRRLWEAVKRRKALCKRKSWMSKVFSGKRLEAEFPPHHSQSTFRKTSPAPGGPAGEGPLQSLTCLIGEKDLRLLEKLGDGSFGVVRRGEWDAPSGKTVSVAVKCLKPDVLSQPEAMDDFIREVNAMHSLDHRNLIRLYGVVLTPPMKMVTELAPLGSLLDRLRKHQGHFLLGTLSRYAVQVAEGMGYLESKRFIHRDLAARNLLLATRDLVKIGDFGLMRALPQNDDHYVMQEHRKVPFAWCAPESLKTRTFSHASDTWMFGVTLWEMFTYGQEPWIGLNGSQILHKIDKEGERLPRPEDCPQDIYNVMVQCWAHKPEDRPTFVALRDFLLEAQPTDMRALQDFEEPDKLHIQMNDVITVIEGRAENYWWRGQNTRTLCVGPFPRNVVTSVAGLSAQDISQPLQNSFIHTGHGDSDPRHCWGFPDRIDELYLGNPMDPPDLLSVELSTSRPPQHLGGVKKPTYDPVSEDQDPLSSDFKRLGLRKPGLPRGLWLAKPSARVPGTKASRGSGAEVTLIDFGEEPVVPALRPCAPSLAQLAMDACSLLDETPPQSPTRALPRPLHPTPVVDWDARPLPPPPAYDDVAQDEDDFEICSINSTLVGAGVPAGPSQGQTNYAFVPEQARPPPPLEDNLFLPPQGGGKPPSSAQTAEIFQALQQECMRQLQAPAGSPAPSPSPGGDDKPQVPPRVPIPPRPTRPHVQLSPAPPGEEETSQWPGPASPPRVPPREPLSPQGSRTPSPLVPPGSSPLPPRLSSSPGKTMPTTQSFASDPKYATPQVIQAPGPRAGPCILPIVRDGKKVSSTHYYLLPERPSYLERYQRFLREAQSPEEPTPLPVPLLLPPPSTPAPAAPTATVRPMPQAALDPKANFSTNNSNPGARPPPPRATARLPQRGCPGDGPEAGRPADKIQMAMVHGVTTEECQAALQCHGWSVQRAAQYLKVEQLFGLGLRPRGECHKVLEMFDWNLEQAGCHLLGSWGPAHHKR
Activin receptor type-2A (Homo sapiens), sequence (P27037 whole entry, the tested form may be a part): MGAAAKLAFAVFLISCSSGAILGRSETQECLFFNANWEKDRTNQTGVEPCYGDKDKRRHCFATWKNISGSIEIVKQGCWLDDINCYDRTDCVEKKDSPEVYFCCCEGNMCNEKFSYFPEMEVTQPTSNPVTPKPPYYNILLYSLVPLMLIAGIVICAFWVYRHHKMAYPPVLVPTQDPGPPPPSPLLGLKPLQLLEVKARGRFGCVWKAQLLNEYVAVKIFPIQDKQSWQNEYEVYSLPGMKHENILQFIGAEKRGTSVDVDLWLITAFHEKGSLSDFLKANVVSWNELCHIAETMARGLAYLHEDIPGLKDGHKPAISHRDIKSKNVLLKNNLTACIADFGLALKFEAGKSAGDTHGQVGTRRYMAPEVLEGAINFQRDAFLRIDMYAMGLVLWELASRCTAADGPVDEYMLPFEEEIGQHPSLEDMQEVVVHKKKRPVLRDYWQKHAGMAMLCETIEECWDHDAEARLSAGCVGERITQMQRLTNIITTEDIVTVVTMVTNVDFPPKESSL
Tyrosine-protein kinase TXK (Homo sapiens), sequence (P42681 whole entry, the tested form may be a part): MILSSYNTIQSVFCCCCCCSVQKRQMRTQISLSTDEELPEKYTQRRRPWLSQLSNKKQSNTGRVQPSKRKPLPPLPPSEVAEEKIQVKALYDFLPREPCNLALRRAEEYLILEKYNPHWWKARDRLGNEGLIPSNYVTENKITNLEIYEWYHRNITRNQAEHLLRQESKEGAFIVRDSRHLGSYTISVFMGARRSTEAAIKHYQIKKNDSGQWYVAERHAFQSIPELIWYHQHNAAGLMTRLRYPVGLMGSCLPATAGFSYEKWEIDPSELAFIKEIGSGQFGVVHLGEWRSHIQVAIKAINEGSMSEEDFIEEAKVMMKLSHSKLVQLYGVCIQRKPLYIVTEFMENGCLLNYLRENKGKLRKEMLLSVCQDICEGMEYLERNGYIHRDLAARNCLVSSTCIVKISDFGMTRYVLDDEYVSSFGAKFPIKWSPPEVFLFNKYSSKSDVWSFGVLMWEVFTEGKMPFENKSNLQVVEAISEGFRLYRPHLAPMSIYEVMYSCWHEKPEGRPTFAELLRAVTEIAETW
Histone-lysine N-methyltransferase EZH2 (Homo sapiens), sequence (Q15910 whole entry, looked up): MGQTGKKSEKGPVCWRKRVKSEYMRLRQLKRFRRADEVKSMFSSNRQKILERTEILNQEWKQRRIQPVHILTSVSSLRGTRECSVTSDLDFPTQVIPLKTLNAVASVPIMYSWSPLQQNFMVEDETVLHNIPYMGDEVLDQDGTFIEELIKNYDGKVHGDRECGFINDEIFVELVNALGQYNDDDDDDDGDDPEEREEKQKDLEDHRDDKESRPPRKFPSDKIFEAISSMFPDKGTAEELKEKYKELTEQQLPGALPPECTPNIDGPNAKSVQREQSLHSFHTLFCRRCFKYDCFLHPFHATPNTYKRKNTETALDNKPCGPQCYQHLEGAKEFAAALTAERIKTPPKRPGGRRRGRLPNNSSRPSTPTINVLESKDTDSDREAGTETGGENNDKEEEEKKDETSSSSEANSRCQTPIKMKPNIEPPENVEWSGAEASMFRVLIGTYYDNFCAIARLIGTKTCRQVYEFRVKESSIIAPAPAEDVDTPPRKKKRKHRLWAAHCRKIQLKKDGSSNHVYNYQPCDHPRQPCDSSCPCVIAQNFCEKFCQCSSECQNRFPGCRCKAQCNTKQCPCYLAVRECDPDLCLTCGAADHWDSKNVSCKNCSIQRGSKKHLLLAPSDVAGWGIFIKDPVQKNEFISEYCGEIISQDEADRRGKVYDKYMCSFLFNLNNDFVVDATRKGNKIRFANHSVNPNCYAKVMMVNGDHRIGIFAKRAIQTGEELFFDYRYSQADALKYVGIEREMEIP
LIM domain kinase 2 (Homo sapiens), sequence (P53671 whole entry, looked up, the tested form may be a part): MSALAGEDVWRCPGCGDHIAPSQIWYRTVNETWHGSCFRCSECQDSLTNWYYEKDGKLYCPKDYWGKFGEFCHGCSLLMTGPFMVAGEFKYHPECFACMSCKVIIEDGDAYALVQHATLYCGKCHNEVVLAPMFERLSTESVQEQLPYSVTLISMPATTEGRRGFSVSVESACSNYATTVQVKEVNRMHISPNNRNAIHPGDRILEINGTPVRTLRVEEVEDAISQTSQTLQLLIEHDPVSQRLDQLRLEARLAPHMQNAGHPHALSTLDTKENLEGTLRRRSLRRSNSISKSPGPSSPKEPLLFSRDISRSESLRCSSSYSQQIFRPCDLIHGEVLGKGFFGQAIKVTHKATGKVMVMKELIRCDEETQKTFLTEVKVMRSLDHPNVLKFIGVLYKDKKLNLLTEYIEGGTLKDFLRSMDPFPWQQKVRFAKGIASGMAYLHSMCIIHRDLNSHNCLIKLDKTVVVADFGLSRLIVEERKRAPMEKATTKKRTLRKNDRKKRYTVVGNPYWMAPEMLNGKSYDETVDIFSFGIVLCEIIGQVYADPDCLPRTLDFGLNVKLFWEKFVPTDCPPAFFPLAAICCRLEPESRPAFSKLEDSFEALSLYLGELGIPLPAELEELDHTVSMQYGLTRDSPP

Cc1cc(C)c(CNc2nc(Cl)nc3c2ncn3C2CCCC2)c(=O)[nH]1
Activity [1]: 104%
Activity [2]: 106%
Activity [3]: 99%
Activity (HCT-116 [4]): Active
Activity [5]: 112%
Activity (HCT-116 [6]): 46.2%
Activity [7]: 104%
Activity [8]: Non-Toxic
Activity [9]: 109%
Activity [10]: 97.5%
inhibition [11]: -10%
Activity [12]: 97%
Activity [13]: 94.5%
Activity (SW-620): Active
Activity [14]: Non-Toxic
Activity [15]: 104%
Activity [16]: 91.5%
Activity [17]: 106%
Activity [18]: 114%
Activity [19]: 106%
Activity [20]: 97%
Activity [21]: 84%
Activity [22]: 118%
Activity [23]: 109%
Activity [24]: 114%
